Tests used:
Assay in all cases: relative viability (nuclei count vs DMSO), 5 days (fraction); higher = more cells survive
Dovitinib = compound: CN1CCN(c2ccc3nc(-c4c(N)c5c(F)cccc5[nH]c4=O)[nH]c3c2)CC1 [Dovitinib]
In short: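 Nuclei counted with MetaXpress define viability as the ratio of treated to vehicle wells, given as a median across plates. The lung cancer cell lines were in 1536-well plates, pinned with five √10-spaced library-drug doses and imaged at 4× after 5 days and Hoechst staining. Plates passed with control CV below 25% and at least one doubling.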

Dovitinib + Trametinib = compound: CN1CCN(c2ccc3nc(-c4c(N)c5c(F)cccc5[nH]c4=O)[nH]c3c2)CC1 [Dovitinib] + CC(=O)Nc1cccc(-n2c(=O)n(C3CC3)c(=O)c3c(Nc4ccc(I)cc4F)n(C)c(=O)c(C)c32)c1 [Trametinib] (partner 0.02 µM)
In short: (§1)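 For relative viability, nuclei counts in treated wells were divided by those in vehicle wells. Lung cancer cell lines had been pin-tool dosed in 1536-well plates the day after seeding and cultured for 5 days, then fixed and stained in one step (final 0.05% Triton X-100, 1% formaldehyde, 1 ug/ml Hoechst) and imaged at 4×. Doses were one drug alone or a fixed anchor-drug dose plus five library-drug doses (not always all listed) in √10 steps, and values are duplicate-plate medians.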

Dovitinib + OSI-027 = compound: CN1CCN(c2ccc3nc(-c4c(N)c5c(F)cccc5[nH]c4=O)[nH]c3c2)CC1 [Dovitinib] + COc1cccc2cc(-c3nc([C@H]4CC[C@H](C(=O)O)CC4)n4ncnc(N)c34)[nH]c12 [OSI-027] (partner 0.5 µM)
In short: as §1

Dovitinib + Phenformin = compound: CN1CCN(c2ccc3nc(-c4c(N)c5c(F)cccc5[nH]c4=O)[nH]c3c2)CC1 [Dovitinib] + N=C(N)NC(=N)NCCc1ccccc1 [Phenformin] (partner 250 µM)
In short: as §1

NCI-H2342
relative viability (Dovitinib; 0.02 µM): 1.12 | relative viability (Dovitinib; 0.06325 µM): 0.992 | relative viability (Dovitinib; 0.2 µM): 1.1 | relative viability (Dovitinib; 0.6325 µM): 1.04 | relative viability (Dovitinib; 2 µM): 1.01 | relative viability (Dovitinib + Trametinib; first compound 0.02 µM): 1.06 | relative viability (Dovitinib + Trametinib; first compound 0.06325 µM): 0.93 | relative viability (Dovitinib + Trametinib; first compound 0.2 µM): 0.854 | relative viability (Dovitinib + Trametinib; first compound 0.6325 µM): 0.67 | relative viability (Dovitinib + Trametinib; first compound 2 µM): 0.75 | relative viability (Dovitinib + OSI-027; first compound 0.02 µM): 0.634 | relative viability (Dovitinib + OSI-027; first compound 0.06325 µM): 0.579 | relative viability (Dovitinib + OSI-027; first compound 0.2 µM): 0.603 | relative viability (Dovitinib + OSI-027; first compound 0.6325 µM): 0.685 | relative viability (Dovitinib + OSI-027; first compound 2 µM): 0.722 | relative viability (Dovitinib + Phenformin; first compound 0.02 µM): 0.709 | relative viability (Dovitinib + Phenformin; first compound 0.06325 µM): 0.561 | relative viability (Dovitinib + Phenformin; first compound 0.2 µM): 0.618 | relative viability (Dovitinib + Phenformin; first compound 0.6325 µM): 0.657 | relative viability (Dovitinib + Phenformin; first compound 2 µM): 0.701

NCI-H2347
relative viability (Dovitinib; 0.02 µM): 1.04 | relative viability (Dovitinib; 0.06325 µM): 1.02 | relative viability (Dovitinib; 0.2 µM): 1.06 | relative viability (Dovitinib; 0.6325 µM): 1.08 | relative viability (Dovitinib; 2 µM): 1.04 | relative viability (Dovitinib + Trametinib; first compound 0.02 µM): 0.284 | relative viability (Dovitinib + Trametinib; first compound 0.06325 µM): 0.289 | relative viability (Dovitinib + Trametinib; first compound 0.2 µM): 0.286 | relative viability (Dovitinib + Trametinib; first compound 0.6325 µM): 0.277 | relative viability (Dovitinib + Trametinib; first compound 2 µM): 0.271 | relative viability (Dovitinib + OSI-027; first compound 0.02 µM): 0.568 | relative viability (Dovitinib + OSI-027; first compound 0.06325 µM): 0.265 | relative viability (Dovitinib + OSI-027; first compound 0.2 µM): 0.471 | relative viability (Dovitinib + OSI-027; first compound 0.6325 µM): 0.545 | relative viability (Dovitinib + OSI-027; first compound 2 µM): 0.529 | relative viability (Dovitinib + Phenformin; first compound 0.02 µM): 0.294 | relative viability (Dovitinib + Phenformin; first compound 0.06325 µM): 0.381 | relative viability (Dovitinib + Phenformin; first compound 0.2 µM): 0.378 | relative viability (Dovitinib + Phenformin; first compound 0.6325 µM): 0.43 | relative viability (Dovitinib + Phenformin; first compound 2 µM): 0.376

NCI-H2405
relative viability (Dovitinib; 0.02 µM): 0.96 | relative viability (Dovitinib; 0.06325 µM): 0.969 | relative viability (Dovitinib; 0.2 µM): 1.06 | relative viability (Dovitinib; 0.6325 µM): 1.03 | relative viability (Dovitinib; 2 µM): 1.16 | relative viability (Dovitinib + Trametinib; first compound 0.02 µM): 0.757 | relative viability (Dovitinib + Trametinib; first compound 0.06325 µM): 0.56 | relative viability (Dovitinib + Trametinib; first compound 0.2 µM): 0.692 | relative viability (Dovitinib + Trametinib; first compound 0.6325 µM): 0.597 | relative viability (Dovitinib + Trametinib; first compound 2 µM): 0.738 | relative viability (Dovitinib + OSI-027; first compound 0.02 µM): 0.627 | relative viability (Dovitinib + OSI-027; first compound 0.06325 µM): 0.594 | relative viability (Dovitinib + OSI-027; first compound 0.2 µM): 0.591 | relative viability (Dovitinib + OSI-027; first compound 0.6325 µM): 0.656 | relative viability (Dovitinib + OSI-027; first compound 2 µM): 0.692 | relative viability (Dovitinib + Phenformin; first compound 0.02 µM): 0.389 | relative viability (Dovitinib + Phenformin; first compound 0.06325 µM): 0.345 | relative viability (Dovitinib + Phenformin; first compound 0.2 µM): 0.448 | relative viability (Dovitinib + Phenformin; first compound 0.6325 µM): 0.331 | relative viability (Dovitinib + Phenformin; first compound 2 µM): 0.446

NCI-H3122
relative viability (Dovitinib; 0.02 µM): 0.947 | relative viability (Dovitinib; 0.06325 µM): 0.963 | relative viability (Dovitinib; 0.2 µM): 0.955 | relative viability (Dovitinib; 0.6325 µM): 0.966 | relative viability (Dovitinib; 2 µM): 0.999 | relative viability (Dovitinib + Trametinib; first compound 0.02 µM): 0.217 | relative viability (Dovitinib + Trametinib; first compound 0.06325 µM): 0.226 | relative viability (Dovitinib + Trametinib; first compound 0.2 µM): 0.231 | relative viability (Dovitinib + Trametinib; first compound 0.6325 µM): 0.234 | relative viability (Dovitinib + Trametinib; first compound 2 µM): 0.248 | relative viability (Dovitinib + OSI-027; first compound 0.02 µM): 1.02 | relative viability (Dovitinib + OSI-027; first compound 0.06325 µM): 0.959 | relative viability (Dovitinib + OSI-027; first compound 0.2 µM): 1 | relative viability (Dovitinib + OSI-027; first compound 0.6325 µM): 0.876 | relative viability (Dovitinib + OSI-027; first compound 2 µM): 0.915 | relative viability (Dovitinib + Phenformin; first compound 0.02 µM): 0.34 | relative viability (Dovitinib + Phenformin; first compound 0.06325 µM): 0.362 | relative viability (Dovitinib + Phenformin; first compound 0.2 µM): 0.414 | relative viability (Dovitinib + Phenformin; first compound 0.6325 µM): 0.33 | relative viability (Dovitinib + Phenformin; first compound 2 µM): 0.385

PC-3 [JPC-3]
relative viability (Dovitinib; 0.02 µM): 1.1 | relative viability (Dovitinib; 0.06325 µM): 0.962 | relative viability (Dovitinib; 0.2 µM): 1.04 | relative viability (Dovitinib; 0.6325 µM): 1.07 | relative viability (Dovitinib; 2 µM): 1.08 | relative viability (Dovitinib + Trametinib; first compound 0.02 µM): 0.767 | relative viability (Dovitinib + Trametinib; first compound 0.06325 µM): 0.675 | relative viability (Dovitinib + Trametinib; first compound 0.2 µM): 0.731 | relative viability (Dovitinib + Trametinib; first compound 0.6325 µM): 0.738 | relative viability (Dovitinib + Trametinib; first compound 2 µM): 0.715 | relative viability (Dovitinib + OSI-027; first compound 0.02 µM): 0.86 | relative viability (Dovitinib + OSI-027; first compound 0.06325 µM): 0.767 | relative viability (Dovitinib + OSI-027; first compound 0.2 µM): 0.8 | relative viability (Dovitinib + OSI-027; first compound 0.6325 µM): 0.732 | relative viability (Dovitinib + OSI-027; first compound 2 µM): 0.779 | relative viability (Dovitinib + Phenformin; first compound 0.02 µM): 0.486 | relative viability (Dovitinib + Phenformin; first compound 0.06325 µM): 0.494 | relative viability (Dovitinib + Phenformin; first compound 0.2 µM): 0.467 | relative viability (Dovitinib + Phenformin; first compound 0.6325 µM): 0.474 | relative viability (Dovitinib + Phenformin; first compound 2 µM): 0.474

— the supplement of paper PMC10307832
